From patent publication US20100190688A1, “Tetrapeptide analogs” (priority 2004, published 2010)

Experiments:
[1] = biological target: T1, BIR3-mediated Caspase-9 inhibition (UniProt Q9R0I6); experiment: Caspase-9 rescue assay (relief of BIR3-mediated Caspase-9 inhibition); type: biochemical, human Caspase-9; Rat or Chicken BIR3; conditions: average EC50, substrate Ac-LEHD-amc, pH 6.5
T1 construct: Nothing is printed for this assay
Description: Additionally the compounds and compositions can be evaluated for their ability to achieve relief of BIR3-mediated Caspase-9 inhibition by measuring Caspase-9 reactivation. The fluorogenic substrate Ac-LEHD-7-amido-4-methylcoumarin is used in these methods. EC50 values of tested BIR3 inhibitors or Caspase-9 rescuers is calculated from the percentage of Caspase-9 reactivation in the mixtures containing serially diluted concentrations of tested compound. Typically, 10-point curves are generated for such EC50 determination.
Relief of BIR3-mediated Caspase-9 inhibition by BIR3 inhibitors was assayed by measuring Caspase-9 reactivation using the fluorogenic substrate Ac-LEHD-7-amido-4-methylcoumarin. A truncated form of human Caspase-9 that lacks the N-terminal Caspase recruitment domain (EPro-Caspase-9 or p35/p12) was used in the assay. This form of the enzyme has the full catalytic activity and the same substrate specificity as the full-length protein in the Apaf-1/Cytochrome C/dATP/Caspase-9 reconstituted system. Rat or Chicken BIR3 was used in this assay. […] This mixture was incubated for 40 min to allow equilibration at 25° C., and the assay progression was subsequently followed by monitoring the formation of fluorescent 7-amido-4-methylcoumarin over time at 460 nm using an excitation wavelength of 360 nm. […] EC50 values of tested BIR3 inhibitors or Caspase-9 rescuers were calculated from the percentage of Caspase-9 reactivation in the mixtures containing serially diluted concentrations of tested compound.

[2] = biological target: BIR3 domain of rat XIAP (Rattus norvegicus, UniProt Q9R0I6); experiment: Fluorescence polarization assay, binding to BIR3 from rat XIAP
Sequence of BIR3 domain of rat XIAP (Q9R0I6 241-355): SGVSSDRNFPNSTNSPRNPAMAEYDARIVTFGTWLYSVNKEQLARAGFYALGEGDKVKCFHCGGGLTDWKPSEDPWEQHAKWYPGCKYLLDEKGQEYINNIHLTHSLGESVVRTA
Description: In fluorescence polarization assays a fluorescent probe is used. The binding affinity of compounds to BIR3 is measured by competitive displacement of a fluorescent probe using fluorescence polarization anisotropy. […] In other embodiments, the probe used is 6-(6-Hydroxy-3-oxo-3H-xanthen-9-yl)-N-(5-(2-methylamino-propionylamino)-6-oxo-6-[4-(1,2,3,4-tetrahydro-naphthalen-1-ylcarbamoyl)-thiazolidin-3-yl]-hexyl)-isophthalamic acid.
The binding affinity of compounds provided herein for rat BIR3 was measured by competitive displacement of a fluorescent probe using fluorescence polarization anisotropy. […] Control conditions were set up on each plate and include free probe 1 alone (5 nM), fully bound probe (5 μM BIR3+5 nM probe 1) and binding buffer blank. The-EC50 of binding was computed from a 4-parameter fit of the measured anisotropies using the SoftMax Pro 4.6 software package (Molecular Dynamics, Sunnyvale, Calif.).
Alternatively, probe 1 was substituted with probe 2: 6-(6-Hydroxy-3-oxo-3H-xanthen-9-yl)-N-{5-(2-methylamino-propionylamino)-6-oxo-6-[4-(1,2,3,4-tetrahydro-naphthalen-1-ylcarbamoyl)-thiazolidin-3-yl]-hexyl}-isophthalamic acid, for rat BIR3 and the concentrations of assay components changed. […] Controls were adjusted accordingly.

EC50 [1] [nM]	EC50 [2] [nM]	Structure (SMILES)
1000 to 10000	< 1000	CNC(C)C(=O)NC(C(=O)N1CCCC1C(=O)NN(C)c1ccccc1)C(C)(C)C (stereo not drawn) [N-{2,2-Dimethyl-1-[2-(N′-methyl-N′-phenyl-hydrazinocarbonyl)-pyrrolidine-1-carbonyl]-propyl}-2-methylamino-propionamide]
> 10000	1000 to 10000	CCCCCN1C(=O)CCC(NC(=O)C(C)NC)C(=O)N1CC(=O)NC1CCCc2ccccc21 (stereo not drawn) [N-{3,7-Dioxo-1-pentyl-2-[(1,2,3,4-tetrahydro-naphthalen-1-ylcarbamoyl)-methyl]-[1,2]diazepan-4-yl}-2-methylamino-propionamide]
1000 to 10000	< 1000	CNC(C)C(=O)NC(C(=O)NC(CCN)C(=O)NC1CCCc2ccccc21)C(C)C (stereo not drawn) [N-[3-Amino-1-(1,2,3,4-tetrahydro-naphthalen-1-ylcarbamoyl)-propyl]-3-methyl-2-(2-methylamino-propionylamino)-butyramide]
1000 to 10000	< 1000	CNC(C)C(=O)NC(C(=O)N(CCCCCNC(=O)OCc1ccccc1)CC(=O)NC1CCCc2ccccc21)C(C)C (stereo not drawn) [(5-{[3-Methyl-2-(2-methylamino-propionylamino)-butyryl]-[(1,2,3,4-tetrahydro-naphthalen-1-ylcarbamoyl)-methyl]-amino}-pentyl)-carbamic acid benzyl ester]
1000 to 10000	< 1000	CNC(C)C(=O)NC(C(=O)NC(COCc1ccccc1)C(=O)NC1CCCc2ccccc21)C(C)C (stereo not drawn) [N-[2-Benzyloxy-1-(1,2,3,4-tetrahydro-naphthalen-1-ylcarbamoyl)-ethyl]-3-methyl-2-(2-methylamino-propionylamino)-butyramide]
< 1000	< 1000	CNC(C)C(=O)NC(C(=O)N1CSCC1C(=O)NC1CCCc2ccccc21)C(C)C (stereo not drawn) [3-[3-Methyl-2-(2-methylamino-propionylamino)-butyryl]-thiazolidine-4-carboxylic acid (1,2,3,4-tetrahydro-naphthalen-1-yl)-amide]
< 1000	< 1000	CNC(C)C(=O)NC(C(=O)NC(CCCCNS(=O)(=O)c1ccc([N+](=O)[O-])cc1)C(=O)NC1CCCc2ccccc21)C(C)C (stereo not drawn) [2-[3-Methyl-2-(2-methylamino-propionylamino)-butyrylamino]-6-(4-nitro-benzenesulfonylamino)-hexanoic acid (1,2,3,4-tetrahydro-naphthalen-1-yl)-amide]
< 1000	< 1000	CNC(C)C(=O)NC(CCCCNC(=O)OCC1c2ccccc2-c2ccccc21)C(=O)N1CSCC1C(=O)NC1CCCc2ccccc21 (stereo not drawn) [{5-(2-Methylamino-propionylamino)-6-oxo-6-[4-(1,2,3,4-tetrahydro-naphthalen-1-ylcarbamoyl)-thiazolidin-3-yl]-hexyl}-carbamic acid 9H-fluoren-9-ylmethyl ester]
1000 to 10000	< 1000	CNC(C)C(=O)NC1CCc2cccc3c2N(C1=O)C(C(=O)NC1CCCc2ccccc21)C3 (stereo not drawn) [5-(2-Methylamino-propionylamino)-4-oxo-1,2,4,5,6,7-hexahydro-azepino[3,2,1-hi]indole-2-carboxylic ′acid (1,2,3,4-tetrahydro-naphthalen-1-yl)-amide]
